{"source": "patent US20140140925A1", "about": "“FOLATE-TARGETED DIAGNOSTICS AND TREATMENT” (priority 2009, published 2014)", "key": {"[1]": {"experiment": "Storage stability of EC20 drug substance and EC20 kits", "format": "physicochemical", "conditions": "−20° C. in amber glass bottles with butyl rubber stoppers", "description": "EC20 kits were used for preparation of the ^99mTc-EC20 radioactive drug substance. Each kit contained a sterile, non-pyrogenic lyophilized mixture of 0.1 mg EC20, 80 mg sodium α-D-glucoheptonate, […] dihydrate, and sufficient sodium hydroxide or hydrochloric acid to adjust the pH to 6.8±0.2 prior to lyophilization. The lyophilized powder was sealed in a 5 mL vial under an argon atmosphere. The kits were then stored frozen at −20° C. until use or expiration (current shelf life is >2 years). The tin (II) chloride component is present to reduce the added ^99mTc-pertechnetate, while the sodium α-D-glucoheptonate component is present to stabilize the reduced ^99mTc prior to its final chelation to the EC20 compound.\nEC20 Drug Substance is stored at −20° C. in amber glass bottles with butyl rubber stoppers."}, "[2]": {"test_system": "folate receptors", "experiment": "EC20 scan of ovarian cancer patients at the interim analysis of Example 25", "format": "in vivo, human", "conditions": "at the time of the interim analysis of Example 25", "excerpt": "Folate-receptor status in the patient is positive if one or more tumors in the patient have folate receptors capable of binding EC20 or if all tumors in the patient are capable of binding EC20. In one illustrative example, the folate-radioactive imaging agent conjugate is ^99mTc-EC20. At the time of the interim analysis described in Example 25, below, 91.3% of all ovarian cancer patients scanned with EC20 had been “positive” (indicated by having at least one tumor lesion/area that binds EC20) versus 8.7% of patients that were fully EC20 “negative”.\nIn this visual assessment embodiment (visual detection), lesions are evaluated visually to determine if the patient has a threshold level of functionally active folate receptors indicative of a clinical benefit to the patient. In one aspect, lesions (i.e., tumors) for analysis in each patient are selected by a radiologist according to RECIST (v1.0) criteria. Subsequently, a nuclear medicine physician (i.e. reader) assesses the uptake of the EC20 for each evaluable target lesion visually, and classifies the uptake as “EC20 positive” (marked uptake/mild uptake) or “EC20 negative” (no uptake). In one illustrative example the folate-radioactive imaging agent conjugate is ^99mTc-EC20."}, "[3]": {"test_system": "folate receptors", "experiment": "99mTc-EC20 SPECT uptake in target lesions (EC-FV-02)", "format": "in vivo, human", "description": "EC20 Patient Scanning Procedure. Following completion of screening procedures and confirmation of eligibility, all subjects received one intravenous injection of 0.5 mg of folic acid followed within 1-3 minutes by a 1-2 mL injection of 0.1 mg of EC20 labeled with 20-25 mCi of technetium-99m. Patients then underwent SPECT imaging (mid-thigh to head, posterior and anterior images) 1-2 hours following injection of EC20. Target lesions were selected by the radiologist according to RECIST (v1.0) criteria. Subsequently, nuclear medicine physicians assessed EC20 uptake for each target lesion visually, and classified the uptake as “positive” (marked/mild uptake) or “negative” (no uptake).\nEC20 Lesion Scoring Procedure.\nForty-five protocol-eligible subjects with a total of 216 RECIST-defined target tumors (ie, “lesions”) were included in this retrospective analysis (table below). One-hundred and forty-five (145/216; 67%) of the lesions were considered EC20 “evaluable.” Of these, 111 (77%) had EC20 “positive” uptake."}, "[4]": {"conditions": "of 145 evaluable lesions, visual SPECT assessment, 45 subjects"}}}
{"compound": "Nc1nc2ncc(CNc3ccc(C(=O)N[C@H](CCC(=O)NC[C@H](N)C(=O)N[C@@H](CC(=O)O)C(=O)N[C@@H](CS)C(=O)O)C(=O)O)cc3)nc2c(=O)[nH]1", "note": "[EC20 Drug Substance, pteroyl-γ-D-glutamyl-β-L-2,3-diaminopropionyl-L-aspartyl-L-cysteine]", "values": [{"measurement": "time stable on storage", "setting": "[1]", "value": "more than 24 months"}]}
{"compound": "Nc1nc2ncc(CNc3ccc(C(=O)N[C@H](CCC(=O)NC[C@@H]4[NH][99Tc]56(=[O])[S]C[C@@H](C(=O)O)[N]5C(=O)[C@H](CC(=O)O)[N]6C4=O)C(=O)O)cc3)nc2c(=O)[nH]1", "note": "[EC20]", "values": [{"measurement": "ovarian cancer patients scanned \"positive\" (at least one tumor lesion/area that binds EC20)", "setting": "[2]", "value": 91.3, "unit": "%"}, {"measurement": "patients fully EC20 \"negative\"", "setting": "[2]", "value": 8.7, "unit": "%"}, {"measurement": "subjects with EC20 uptake observed visually in at least 1 target lesion", "setting": "[3]; 45 subjects, EC-FV-02", "value": "Eighty-seven percent"}, {"measurement": "Negative (EC20−(neg)) lesions", "setting": "[3]; [4]", "value": "34 (23%) N (%)"}, {"measurement": "Positive (EC20+) lesions", "setting": "[3]; [4]", "value": "111 (77%) N (%)"}, {"measurement": "uptake in liver, spleen, bladder, and kidney", "setting": "[3]; organs whose target lesions were considered non-evaluable", "value": "inherently high uptake"}]}
